What was measured:
[1] = system: PRTFDC1 gene expression in oral squamous-cell carcinoma cell lines not expressing the PRTFDC1 gene; test: RT-PCR of PRTFDC1 gene expression after treatment with demethylating reagent or deacetylation inhibitory agent; assay type: cell-based; details: oral squamous-cell carcinoma cells (NA, HSC-2, ZA)
Protocol: (d) Oral squamous-cell carcinoma cells (NA, HSC-2, and ZA) were treated (+) or not treated (−) with 5-aza-dCyd ([…]) for 5 days or with TSA ([…]) for 24 hours. The results of RT-PCR analysis on the PRTFDC1 gene in the oral squamous-cell carcinoma cells are shown.
To examine the expression levels of the 6 above genes (the PRTFDC1 gene, the e10orf6 gene, the THNSL1 gene, the GPR158 gene, the MYO3A gene, and the GAD2 gene), 18 types of oral squamous-cell carcinoma cell line and normal oral epithelium cells were subjected to reverse transcriptase (RT)-PCR. Specifically, a single-chain cDNA was synthesized from the RNA extracted from each cultured cell line using the SuperScript First-Strand Synthesis System (Invitrogen). PCR was then performed using primer sequences listed in Table 4 (supplementary Table 1). Moreover, a glyceraldehyde-3-phosphate dehydrogenase (GAPDH) gene was used as a control. As a result, complete disappearance of PRTFDC1 mRNA expression could be confirmed in 8 cell lines in which homozygous deletion of chromosomal region 10p12 should not have taken place, as in the case of HSC-6 cells (FIG. 2c). […] Such disappearance of PRTFDC1 mRNA expression in the oral squamous-cell carcinoma cell lines may be due to a mechanism other than genomic deletion, such as an epigenetic phenomenon.
To examine if the suppressed expression of the PRTFDC1 gene was due to DNA methylation, oral squamous-cell carcinoma cell lines not expressing the PRTFDC1 gene were treated using a 1 μM or 5 μM demethylating reagent 5—aza—dCyd for 5 days and/or using deacetylation inhibitory agent TSA (100 ng/ml) for 24 hours. RNAs were extracted from these cells and then PRTFDC1 gene expression was examined by RT-PCR (FIG. 2d).

[2] = system: CpG islands of the PRTFDC1 gene; test: Demethylation of CpG islands by culturing oral squamous-cell carcinoma cells with demethylating reagent; assay type: cell-based; details: oral squamous-cell carcinoma cells cultured in the presence of the reagent

Row | Structure (SMILES) | PRTFDC1 gene expression (RT-PCR) ([1]; 5-aza-dCyd 1 μM or 5 μM for 5 days) | PRTFDC1 gene expression (RT-PCR) ([1]; 5-aza-dCyd 1 μM or 5 μM for 5 days, listed as 5-azadeoxycytidine) | demethylation of CpG islands [2] | PRTFDC1 gene expression (RT-PCR) ([1]; TSA 100 ng/ml for 24 hours)
1 | Nc1ncn([C@H]2C[C@H](O)[C@@H](CO)O2)c(=O)n1 [5-aza-dCyd, 5-azadeoxycytidine] | recovers its gene expression | possible to recover the expression level | possible to demethylate | 
2 | CC(/C=C/C(=O)NO)=C\[C@@H](C)C(=O)c1ccc(N(C)C)cc1 [TSA] |  |  |  | no differences

From US20090011950A1, “METHOD FOR DETECTING ORAL SQUAMOUS-CELL CARCINOMA AND METHOD FOR SUPPRESSING THE SAME” (priority 2007, published 2009)
